These results are taken from patent publication US7135466B2 (Kirin Beer Kabushiki Kaisha, priority 1999, dated 2006).

What is called IC50 is the midpoint of a concentration-inhibition curve. In general, inhibition refers to the share of the control response that was lost under treatment.

Assay [1] deals with T1, PDGF-Ra (Homo sapiens, UniProt P16234).
T1 construct: host or cells: G-292 human osteosarcoma cells
The assay is described as follows: Inhibitory activity against PDGF-Ra phosphorylation by PDGF-AA stimulation using G292. The assay is classed as cell-based. As to conditions: for IC50: > means inhibition at indicated concentration not more than 50%, < and << not less than 50%, read-out: PDGF (E) IC50; for inhibition at 0.1 µM: G292, read-out: PDGF (E) inhibition (%) at 100 nM. The procedure, abridged: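 Cells seeded in low-serum medium are exposed to test compound for one hour, then PDGF-AA (50 ng/ml) triggers receptor phosphorylation for 5 min at 37 °C. Phospho-PDGF-Ra in solubilized cells is quantified by anti-phosphotyrosine capture ELISA at 450 nm.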

Assay [2] concerns the target T2, c-kit (Homo sapiens, UniProt P10721).
T2 construct: MO7e (human megakaryocytic leukemia cell line) which had been arrested for 20 hr; endogenous in cells; host or cells: MO7e human megakaryocytic leukemia cell line
The assay can be described thus: Inhibitory activity against c-kit autophosphorylation (MO7e cells, h-SCF). The assay is classed as cell-based. The conditions noted are these: for inhibition at 1 µM: Mo7e, figure within parentheses in −( ) or >1000( ), at 1000 nM; for IC50: MO7e cells, 50 ng/ml h-SCF, read-out: c-kit IC50. The procedure, abridged:
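MO7e human megakaryocytic leukemia cells, arrested 20 hr, treated with compound 1 hr, then stimulated with 50 ng/ml h-SCF for 5 min and lysed. Lysates captured on immobilized anti-phosphotyrosine antibody, detected with anti-c-kit primary and HRP secondary antibody; absorbance at 450 nm.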

Where [3] appears, read: figure within parentheses in >100( ), at 100 nM.

T1 sequence (P16234 24-1089): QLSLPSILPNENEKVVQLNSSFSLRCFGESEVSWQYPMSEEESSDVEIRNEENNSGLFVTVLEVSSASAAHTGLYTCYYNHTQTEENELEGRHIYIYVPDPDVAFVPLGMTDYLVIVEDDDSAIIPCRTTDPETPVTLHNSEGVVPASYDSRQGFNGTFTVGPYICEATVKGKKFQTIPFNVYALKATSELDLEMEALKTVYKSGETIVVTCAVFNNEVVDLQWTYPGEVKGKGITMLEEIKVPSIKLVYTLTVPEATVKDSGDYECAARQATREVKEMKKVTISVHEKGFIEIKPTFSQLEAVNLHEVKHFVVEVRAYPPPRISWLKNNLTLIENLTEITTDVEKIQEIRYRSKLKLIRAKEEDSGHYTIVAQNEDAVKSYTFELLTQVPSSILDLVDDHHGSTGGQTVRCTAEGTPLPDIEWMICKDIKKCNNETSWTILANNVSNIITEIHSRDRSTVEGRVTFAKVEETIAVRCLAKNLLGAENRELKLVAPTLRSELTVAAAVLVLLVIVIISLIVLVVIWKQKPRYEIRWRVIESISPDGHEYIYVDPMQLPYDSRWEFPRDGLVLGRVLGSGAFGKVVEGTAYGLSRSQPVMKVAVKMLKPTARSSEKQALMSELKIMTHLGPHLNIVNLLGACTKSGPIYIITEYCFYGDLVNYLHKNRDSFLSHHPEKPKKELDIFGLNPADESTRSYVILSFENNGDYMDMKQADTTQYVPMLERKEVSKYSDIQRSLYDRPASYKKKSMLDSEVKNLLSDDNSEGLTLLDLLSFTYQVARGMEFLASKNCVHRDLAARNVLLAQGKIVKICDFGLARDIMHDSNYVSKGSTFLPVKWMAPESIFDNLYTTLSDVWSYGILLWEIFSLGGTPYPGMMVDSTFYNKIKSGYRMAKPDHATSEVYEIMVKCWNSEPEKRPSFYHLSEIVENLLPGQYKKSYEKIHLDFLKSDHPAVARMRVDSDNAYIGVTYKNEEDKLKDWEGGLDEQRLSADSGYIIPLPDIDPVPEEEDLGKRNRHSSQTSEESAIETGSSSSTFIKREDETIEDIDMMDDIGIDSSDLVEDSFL
T2 sequence (P10721 26-976): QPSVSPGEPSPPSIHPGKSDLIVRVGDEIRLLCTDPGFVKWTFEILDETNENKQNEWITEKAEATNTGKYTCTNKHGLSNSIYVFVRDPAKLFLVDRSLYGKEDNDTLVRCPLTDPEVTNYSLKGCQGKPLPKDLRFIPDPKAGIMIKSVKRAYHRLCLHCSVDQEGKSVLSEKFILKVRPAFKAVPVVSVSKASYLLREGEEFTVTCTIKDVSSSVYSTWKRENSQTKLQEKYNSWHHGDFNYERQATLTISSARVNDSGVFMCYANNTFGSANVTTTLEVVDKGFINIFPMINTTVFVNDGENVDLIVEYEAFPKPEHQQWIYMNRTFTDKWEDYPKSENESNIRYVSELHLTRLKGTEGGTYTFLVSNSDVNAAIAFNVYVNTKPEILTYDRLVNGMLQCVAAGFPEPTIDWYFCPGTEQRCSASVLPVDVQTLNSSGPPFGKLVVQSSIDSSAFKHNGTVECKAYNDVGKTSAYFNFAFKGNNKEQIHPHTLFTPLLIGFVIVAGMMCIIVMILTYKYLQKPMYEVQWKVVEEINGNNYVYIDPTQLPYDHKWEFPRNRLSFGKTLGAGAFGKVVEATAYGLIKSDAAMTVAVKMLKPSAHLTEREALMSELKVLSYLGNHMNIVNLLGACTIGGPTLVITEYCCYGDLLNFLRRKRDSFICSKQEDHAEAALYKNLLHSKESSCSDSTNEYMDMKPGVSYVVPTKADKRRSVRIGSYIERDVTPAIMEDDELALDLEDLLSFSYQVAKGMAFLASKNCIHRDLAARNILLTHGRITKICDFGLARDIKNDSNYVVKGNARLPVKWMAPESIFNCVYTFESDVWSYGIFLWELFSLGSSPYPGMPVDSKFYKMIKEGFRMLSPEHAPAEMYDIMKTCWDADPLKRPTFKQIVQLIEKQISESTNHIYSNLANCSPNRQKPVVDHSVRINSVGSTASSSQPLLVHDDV

As for `CCCC(CCC)OC(=O)N(C)c1ccc(Oc2ncnc3cc(OC)c(OC)cc23)cc1Cl` [Example 481, 1-Propylbutyl N-{2-chloro-4-[(6,7-dimethoxy-4-quinazolinyl)oxy]phenyl}-N-methylcarbamate], the IC50 in assay [1] was 16 nM. Moreover, the inhibition at 1 µM in assay [2] amounted to 3%.

Turning to `COc1cc2ncnc(Oc3ccc(N(C)C(=O)OC4CCCCCC4)c(Cl)c3)c2cc1OC` [Example 482, Cycloheptyl N-{2-chloro-4-[(6,7-dimethoxy-4-quinazolinyl)oxy]phenyl}-N-methylcarbamate], in assay [1], the half-inhibitory concentration (IC50) came to 24 nM. The inhibition at 1 µM in assay [2] was 5%.

On to `COc1cc2nccc(Oc3ccc(N(C)C(=O)OCC4CCCCCC4)cc3)c2cc1OC` [Example 483, Cycloheptylmethyl N-{4-[(6,7-dimethoxy-4-quinolyl)oxy]phenyl}-N-methylcarbamate], for which the half-inhibitory concentration (IC50) in assay [1] is 20 nM; in assay [2], below 30 nM.

As to `COc1cc2ncnc(Oc3ccc(N(C)C(=O)OCC4CCCCCC4)cc3)c2cc1OC` [Example 484], the 50% inhibitory concentration (IC50) worked out at 12 nM in assay [1] and 75 nM in assay [2].

Consider `CCN(C(=O)OC1CCCCCC1)c1ccc(Oc2ncnc3cc(OC)c(OC)cc23)cc1Cl` [Example 489, Cycloheptyl N-{2-chloro-4-[(6,7-dimethoxy-4-quinazolinyl)oxy]phenyl}-N-ethylcarbamate], for which the IC50 worked out at 58 nM in assay [1] and 637 nM in assay [2].

As for `COc1ccccc1COC(=O)N(C)c1ccc(Oc2ncnc3cc(OC)c(OC)cc23)cc1` [Example 490, 2-Methoxybenzyl N-{4-[(6,7-dimethoxy-4-quinazolinyl)oxy]phenyl}-N-methylcarbamate], the IC50 in assay [1] stood at 21 nM; in assay [2], 261 nM.

Consider `COc1cc2ncnc(Oc3ccc(N(C)C(=O)OCc4ccccc4C)cc3)c2cc1OC` [Example 491, 2-Methylbenzyl N-{4-[(6,7-dimethoxy-4-quinazolinyl)oxy]phenyl}-N-methylcarbamate], for which the IC50 in assay [1] was determined as 24 nM; in assay [2], 315 nM.

For the compound `COc1cc2ncnc(Oc3ccc(N(C)C(=O)OCc4ccccc4Cl)cc3)c2cc1OC` [Example 492, 2-Chlorobenzyl N-{4-[(6,7-dimethoxy-4-quinazolinyl)oxy]phenyl}-N-methylcarbamate], the IC50 in assay [1] was 20 nM; in assay [2], 321 nM.

Consider `COc1cc2ncnc(Oc3ccc(N(C)C(=O)OC4CCCCCC4)cc3)c2cc1OC` [Example 494, Cycloheptyl N-{4-[(6,7-dimethoxy-4-quinazolinyl)oxy]phenyl}-N-methylcarbamate], for which the IC50 in assay [1] turned out to be 16 nM; in assay [2] it was 125 nM.

Consider `C#CCC(CC)OC(=O)N(C)c1ccc(Oc2ccnc3cc(OC)c(OC)cc23)cc1` (stereo not drawn) [Example 496, 1-Ethyl-3-butynyl N-{4-[(6,7-dimethoxy-4-quinolyl)oxy]phenyl}-N-methylcarbamate], for which, in assay [1], the concentration for half-maximal inhibition (IC50) stood at 45 nM. Further, the inhibition at 1 µM in assay [2] came out at 32%.

For `COc1cc(Oc2ncnc3cc(OC)c(OC)cc23)ccc1NC(=O)OC1CCCCC1` [Example 497, Cyclohexyl N-{4-[(6,7-dimethoxy-4-quinazolinyl)oxy]-2-methoxyphenyl}carbamate], the 50% inhibitory concentration (IC50) is below 10 nM in assay [1] and 82 nM in assay [2].

For `COc1cc(Oc2ncnc3cc(OC)c(OC)cc23)ccc1NC(=O)OC1CCCCCC1` [Example 498, Cycloheptyl N-{4-[(6,7-dimethoxy-4-quinazolinyl)oxy]-2-methoxyphenyl}carbamate], the IC50 was below 10 nM in assay [1] and 140 nM in assay [2].

For the compound `COc1cc(Oc2ncnc3cc(OC)c(OC)cc23)ccc1NC(=O)OCc1ccccc1Cl` [Example 499, 2-Chlorobenzyl N-{4-[(6,7-dimethoxy-4-quinazolinyl)oxy]-2-methoxyphenyl}carbamate], the IC50 in assay [1] was below 10 nM; in assay [2] it was 98 nM.

For the compound `COc1ccccc1COC(=O)Nc1ccc(Oc2ncnc3cc(OC)c(OC)cc23)cc1OC` [Example 500, 2-Methoxybenzyl N-{4-[(6,7-dimethoxy-4-quinazolinyl)oxy]-2-methoxyphenyl}carbamate], the IC50 was found to be 14 nM in assay [1] and 199 nM in assay [2].

As for `COc1cc(Oc2ncnc3cc(OC)c(OC)cc23)ccc1NC(=O)OCCc1ccccn1` [Example 501, 2-(2-Pyridyl)ethyl N-{4-[(6,7-dimethoxy-4-quinazolinyl)oxy]-2-methoxyphenyl}carbamate], the results for the IC50 in assay [1] and in assay [2] were 11 nM and 56 nM, respectively.

In the case of `COc1cc2ncnc(Oc3ccc(NC(=O)OC4CCCCC4)c([N+](=O)[O-])c3)c2cc1OC` [Example 503, Cyclohexyl N-{4-[(6,7-dimethoxy-4-quinazolinyl)oxy]-2-nitrophenyl}carbamate], the 50% inhibitory concentration (IC50) in assay [1] is 87 nM. Further, the inhibition at 1 µM in assay [2] stood at 36%.

For `COc1cc2ncnc(Oc3ccc(NC(=O)OCc4ccccc4Cl)c([N+](=O)[O-])c3)c2cc1OC` [Example 504, 2-Chlorobenzyl N-{4-[(6,7-dimethoxy-4-quinazolinyl)oxy]-2-nitrophenyl}carbamate], the half-inhibitory concentration (IC50) in assay [1] stood at 46 nM. In assay [2], the inhibition at 1 µM was found to be 42%.

For `COc1cc2ncnc(Oc3ccc(NC(=O)OCc4ccccc4C)c([N+](=O)[O-])c3)c2cc1OC` [Example 505, 2-Methylbenzyl N-{4-[(6,7-dimethoxy-4-quinazolinyl)oxy]-2-nitrophenyl}carbamate], the IC50 in assay [1] amounted to 53 nM. Moreover, in assay [2], the inhibition at 1 µM stood at 25%.

Regarding `COc1cc2ncnc(Oc3ccc(NC(=O)OCC4CCCCCC4)c([N+](=O)[O-])c3)c2cc1OC` [Example 506, Cycloheptylmethyl N-{4-[(6,7-dimethoxy-4-quinazolinyl)oxy]-2-nitrophenyl}carbamate], the half-maximal inhibitory concentration (IC50) was 74 nM in assay [1] and 369 nM in assay [2].

As to `COc1cc2ncnc(Oc3ccc(NC(=O)OC4CCCCCC4)c([N+](=O)[O-])c3)c2cc1OC` [Example 507, Cycloheptyl N-{4-[(6,7-dimethoxy-4-quinazolinyl)oxy]-2-nitrophenyl}carbamate], the half-inhibitory concentration (IC50) turned out to be 44 nM in assay [1] and 787 nM in assay [2].

In the case of `CCCCCCOC(=O)Nc1ccc(Oc2ncnc3cc(OC)c(OC)cc23)cc1[N+](=O)[O-]` [Example 509, Hexyl N-{4-[(6,7-dimethoxy-4-quinazolinyl)oxy]-2-nitrophenyl}carbamate], the half-inhibitory concentration (IC50) in assay [1] came out at 26 nM; in assay [2], 164 nM.

In the case of `C#CCC(CC)OC(=O)Nc1ccc(Oc2ncnc3cc(OC)c(OC)cc23)cc1[N+](=O)[O-]` (stereo not drawn) [Example 510, 1-Ethyl-3-butynyl N-{4-[(6,7-dimethoxy-4-quinazolinyl)oxy]-2-nitrophenyl}carbamate], in assay [1], the IC50 is above 100 nM. Also, the inhibition at 0.1 µM in assay [1] (setting [3]) worked out at 3%. Further, in assay [2], the inhibition at 1 µM was 17%.

On to `CCN(CC)CCNC(=S)Nc1ccc(Oc2ccnc3cc(OC)c(OC)cc23)c(C)c1C` [Example 511, N-{4-[(6,7-Dimethoxy-4-quinolyl)oxy]-2,3-dimethylphenyl}-N′-(2-diethylaminoethyl)thiourea], for which the 50% inhibitory concentration (IC50) amounted to 19 nM in assay [1] and 663 nM in assay [2].

As for `COc1cc2nccc(Oc3ccc(NC(=S)NC4CCN(Cc5ccccc5)CC4)c(C)c3C)c2cc1OC` [Example 513, N-{4-[(6,7-Dimethoxy-4-quinolyl)oxy]-2,3-dimethylphenyl}-N′-[4-(N-benzyl)piperidinyl]thiourea], the IC50 in assay [1] is above 100 nM; in assay [2], 720 nM. Further, the “PDGF (E) inhibition (%) at 100 nM” value in assay [1] (setting [3]) was determined as 28%.

Regarding `COc1cc2nccc(Oc3cc(C)c(NC(=S)NCCN4CCCCC4)cc3C)c2cc1OC` [Example 514], the IC50 in assay [1] is above 100 nM. The inhibition at 0.1 µM in assay [1] (setting [3]) was found to be 31%. Also, the inhibition at 1 µM in assay [2] stood at 29%.

On to `COc1cc2nccc(Oc3cc(C)c(NC(=S)NCCNC(C)=O)cc3C)c2cc1OC` [Example 515, N-{4-[(6,7-Dimethoxy-4-quinolyl)oxy]-2,5-dimethylphenyl}-N′-(2-acetamidoethyl)thiourea], for which the IC50 in assay [1] is above 100 nM. Moreover, in assay [1] (setting [3]), the inhibition at 0.1 µM worked out at 32%. For the same compound, the inhibition at 1 µM in assay [2] was 21%.

On to `COc1cc2ncnc(Oc3ccc(NC(=S)NCCN4CCCCC4)cc3)c2cc1OC` [Example 517, N-{4-[(6,7-Dimethoxy-4-quinazolinyl)oxy]phenyl}-N′-[2-(1-piperidinyl)ethyl]thiourea], for which the IC50 in assay [1] is 38 nM. In addition, in assay [2], the inhibition at 1 µM turned out to be 33%.

With `COc1cc2ncnc(Oc3ccc(NC(=S)NN4CCCCC4)cc3)c2cc1OC` [Example 524, N-{4-[(6,7-Dimethoxy-4-quinazolinyl)oxy]phenyl}-N′-(1-piperidinyl)thiourea], in assay [1], the IC50 is above 100 nM. The inhibition at 0.1 µM in assay [1] (setting [3]) stood at 21%. Further, the inhibition at 1 µM in assay [2] was found to be 21%.

On to `COc1cc2ncnc(Oc3ccc(NC(=S)NCCCN4CCCC4=O)cc3)c2cc1OC` [Example 525, N-{4-[(6,7-Dimethoxy-4-quinazolinyl)oxy]phenyl}-N′-[3-(2-oxotetrahydro-1H-1-pyrrolyl)-propyl]thiourea], for which, in assay [1], the IC50 turned out to be 79 nM. Further, the inhibition at 1 µM in assay [2] turned out to be 41%.

As to `COc1cc2ncnc(Oc3ccc(NC(=S)NCCCn4ccnc4)cc3)c2cc1OC` [Example 526, N-{4-[(6,7-Dimethoxy-4-quinazolinyl)oxy]phenyl}-N′-[3-(1-imidazoyl)propyl]thiourea], the figures for the IC50 in assay [1] and in assay [2] were above 100 nM and 731 nM, respectively. The inhibition at 0.1 µM in assay [1] (setting [3]) is 46%.
